Assay results taken from patent EP4745135A1 (Gluetacs Therapeutics (Shanghai) Co., Ltd., priority 2023, dated 2025).

Key:
[1] = test system: Human T cell acute lymphoblastic leukemia cell (CCRF-CEM); test: Tumor cell proliferation inhibition (CellTiter-Meiluncell luminescent cell viability assay); conditions: 96 h; for inhibition at 0.01 µM: read-out: Inhibition Rate at 10 nM (%); for inhibition at 0.5 µM: read-out: Inhibition Rate at 500 nM (%)
[2] = test system: Human myeloid monocytic leukemia cell (MV-4-11); test: as above; conditions: MV4-11, 96 h; for inhibition at 0.01 µM: read-out: Inhibition Rate at 10 nM (%); for inhibition at 0.5 µM: read-out: Inhibition Rate at 500 nM (%)
[3] = test system: Human T lymphocytic leukemia cell line: Jurkat; test: as above; conditions: 96 h; for inhibition at 0.01 µM: read-out: Inhibition Rate at 10 nM (%); for inhibition at 0.5 µM: read-out: Inhibition Rate at 500 nM (%)
[4] = test system: GSPT1; test: Western blot, degradation of substrate protein in hPBMCs; assay type: cell-based, Human
[5] = biological target: T1, human Cereblon WT GST-tagged protein (Homo sapiens, UniProt Q96SW2); test: CRBN-binding affinity, HTRF (CEREBLON BINDING kit); conditions: for inhibition at 0.5 µM: read-out: Inhibition Rate at 0.5 µM (%); for inhibition at 2 µM: read-out: Inhibition Rate at 2 µM (%)
T1 construct: purchased CISBIO 64BDCRBNPEH
T1 sequence (Q96SW2 whole entry): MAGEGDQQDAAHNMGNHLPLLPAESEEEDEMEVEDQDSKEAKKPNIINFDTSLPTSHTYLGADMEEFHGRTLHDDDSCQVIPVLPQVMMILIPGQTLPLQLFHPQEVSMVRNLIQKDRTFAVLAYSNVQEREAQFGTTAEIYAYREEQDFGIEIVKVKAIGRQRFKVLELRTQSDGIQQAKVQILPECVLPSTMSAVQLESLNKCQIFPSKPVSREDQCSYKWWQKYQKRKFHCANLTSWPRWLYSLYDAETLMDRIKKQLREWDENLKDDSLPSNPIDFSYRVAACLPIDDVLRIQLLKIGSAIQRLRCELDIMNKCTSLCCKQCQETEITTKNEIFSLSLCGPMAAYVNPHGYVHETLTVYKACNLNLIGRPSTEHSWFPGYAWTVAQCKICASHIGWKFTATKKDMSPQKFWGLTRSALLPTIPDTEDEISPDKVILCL

[6] = biological target: T2, WEE1 (Homo sapiens, UniProt P30291+Q96SW2); test: Western blot, degradation of substrate protein in hPBMCs; assay type: cell-based
T2 construct: effects of the compounds of the present disclosure on the expression of target proteins in cells; endogenous in cells; host or cells: human PBMCs (Milecell Biotechnologies)
T2 sequence (P30291 whole entry): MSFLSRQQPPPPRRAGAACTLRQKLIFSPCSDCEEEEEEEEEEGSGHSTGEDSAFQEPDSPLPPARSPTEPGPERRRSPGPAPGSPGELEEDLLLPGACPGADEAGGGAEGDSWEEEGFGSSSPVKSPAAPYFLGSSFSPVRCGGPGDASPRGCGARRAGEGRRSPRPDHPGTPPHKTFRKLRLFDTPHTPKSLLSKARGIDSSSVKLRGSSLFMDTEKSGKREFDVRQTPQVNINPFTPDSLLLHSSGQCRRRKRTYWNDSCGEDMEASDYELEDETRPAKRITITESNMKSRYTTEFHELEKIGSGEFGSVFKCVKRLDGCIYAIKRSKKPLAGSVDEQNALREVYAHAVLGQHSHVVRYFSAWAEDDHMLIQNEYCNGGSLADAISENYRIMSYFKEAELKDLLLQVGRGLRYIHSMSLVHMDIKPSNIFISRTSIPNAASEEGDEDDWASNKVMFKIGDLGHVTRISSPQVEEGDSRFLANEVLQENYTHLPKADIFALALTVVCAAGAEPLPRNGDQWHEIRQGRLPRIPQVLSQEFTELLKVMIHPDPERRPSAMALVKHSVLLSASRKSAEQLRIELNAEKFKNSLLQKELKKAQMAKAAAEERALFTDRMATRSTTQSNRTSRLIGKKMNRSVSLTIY
T2 sequence (Q96SW2 whole entry): as the sequence (Q96SW2 whole entry) above
T2 sequence (Q16531 whole entry partner): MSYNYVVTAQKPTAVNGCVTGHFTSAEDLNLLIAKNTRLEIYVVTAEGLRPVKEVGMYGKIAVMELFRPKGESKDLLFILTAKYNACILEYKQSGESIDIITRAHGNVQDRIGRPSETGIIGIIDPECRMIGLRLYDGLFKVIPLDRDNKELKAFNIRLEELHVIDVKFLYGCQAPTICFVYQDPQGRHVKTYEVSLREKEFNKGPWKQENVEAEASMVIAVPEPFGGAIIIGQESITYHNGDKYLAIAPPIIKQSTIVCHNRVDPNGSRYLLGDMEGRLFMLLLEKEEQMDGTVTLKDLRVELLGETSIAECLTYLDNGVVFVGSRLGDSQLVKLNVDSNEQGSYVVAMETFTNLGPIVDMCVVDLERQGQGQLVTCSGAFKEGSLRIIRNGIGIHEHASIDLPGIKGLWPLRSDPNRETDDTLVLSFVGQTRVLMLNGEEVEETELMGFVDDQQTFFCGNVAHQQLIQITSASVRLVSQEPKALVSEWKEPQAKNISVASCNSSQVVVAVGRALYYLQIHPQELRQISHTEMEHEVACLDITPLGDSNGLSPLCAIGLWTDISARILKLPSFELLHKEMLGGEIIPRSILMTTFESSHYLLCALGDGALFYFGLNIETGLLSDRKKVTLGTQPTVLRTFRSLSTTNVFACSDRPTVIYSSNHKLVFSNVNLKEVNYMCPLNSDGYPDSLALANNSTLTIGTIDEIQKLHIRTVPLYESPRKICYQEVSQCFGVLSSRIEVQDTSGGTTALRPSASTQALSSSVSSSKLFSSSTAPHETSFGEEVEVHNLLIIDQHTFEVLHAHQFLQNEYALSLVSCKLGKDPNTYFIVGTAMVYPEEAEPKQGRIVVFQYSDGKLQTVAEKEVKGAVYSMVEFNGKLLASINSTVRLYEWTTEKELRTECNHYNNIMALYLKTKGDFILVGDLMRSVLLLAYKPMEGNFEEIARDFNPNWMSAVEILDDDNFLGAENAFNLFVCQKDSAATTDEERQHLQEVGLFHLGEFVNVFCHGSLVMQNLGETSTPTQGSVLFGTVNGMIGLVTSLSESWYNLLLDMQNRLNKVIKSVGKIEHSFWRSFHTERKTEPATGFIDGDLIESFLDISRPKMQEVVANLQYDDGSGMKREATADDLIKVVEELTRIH

[7] = biological target: T3, IKZF1 (Homo sapiens, UniProt Q13422+Q96SW2); test: as above; assay type: cell-based
T3 construct: effects of the compounds of the present disclosure on the expression of target proteins in cells; endogenous in cells; host or cells: human PBMCs (Milecell Biotechnologies)
T3 sequence (Q13422 whole entry): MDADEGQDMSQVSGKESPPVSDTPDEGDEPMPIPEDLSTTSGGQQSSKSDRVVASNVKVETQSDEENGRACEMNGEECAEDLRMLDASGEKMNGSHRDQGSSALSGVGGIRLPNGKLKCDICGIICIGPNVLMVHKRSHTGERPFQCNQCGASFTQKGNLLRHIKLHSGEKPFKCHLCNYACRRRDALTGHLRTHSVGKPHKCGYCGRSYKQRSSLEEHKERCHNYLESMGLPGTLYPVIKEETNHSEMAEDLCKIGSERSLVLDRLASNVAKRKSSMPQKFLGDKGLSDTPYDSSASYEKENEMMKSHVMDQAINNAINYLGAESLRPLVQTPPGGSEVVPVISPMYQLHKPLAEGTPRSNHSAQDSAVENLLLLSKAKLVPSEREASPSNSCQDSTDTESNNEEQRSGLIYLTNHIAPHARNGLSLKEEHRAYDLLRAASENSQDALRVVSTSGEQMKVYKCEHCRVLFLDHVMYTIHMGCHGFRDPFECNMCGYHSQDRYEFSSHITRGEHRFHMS
T3 sequence (Q96SW2 whole entry): as the sequence (Q96SW2 whole entry) above
T3 sequence (Q16531 whole entry partner): as the sequence (Q16531 whole entry partner) above

[8] = biological target: T4, CK1α (Homo sapiens, UniProt P48729+Q96SW2); test: as above; assay type: cell-based
T4 construct: effects of the compounds of the present disclosure on the expression of target proteins in cells; endogenous in cells; host or cells: human PBMCs (Milecell Biotechnologies)
T4 sequence (P48729 whole entry): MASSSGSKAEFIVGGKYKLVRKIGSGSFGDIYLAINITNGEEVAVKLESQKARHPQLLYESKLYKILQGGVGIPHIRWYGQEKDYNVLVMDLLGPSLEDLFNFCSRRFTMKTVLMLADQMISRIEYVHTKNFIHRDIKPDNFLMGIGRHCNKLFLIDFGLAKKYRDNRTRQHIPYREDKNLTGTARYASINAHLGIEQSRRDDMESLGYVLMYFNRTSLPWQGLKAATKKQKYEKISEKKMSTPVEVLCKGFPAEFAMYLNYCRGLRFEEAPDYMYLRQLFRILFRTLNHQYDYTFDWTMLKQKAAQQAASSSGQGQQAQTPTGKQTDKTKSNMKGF
T4 sequence (Q96SW2 whole entry): as the sequence (Q96SW2 whole entry) above
T4 sequence (Q16531 whole entry partner): as the sequence (Q16531 whole entry partner) above

[9] = biological target: T5, IKZF3 (Homo sapiens, UniProt Q96SW2+Q9UKT9); test: as above; assay type: cell-based
T5 construct: effects of the compounds of the present disclosure on the expression of target proteins in cells; endogenous in cells; host or cells: human PBMCs (Milecell Biotechnologies)
T5 sequence (Q9UKT9 whole entry): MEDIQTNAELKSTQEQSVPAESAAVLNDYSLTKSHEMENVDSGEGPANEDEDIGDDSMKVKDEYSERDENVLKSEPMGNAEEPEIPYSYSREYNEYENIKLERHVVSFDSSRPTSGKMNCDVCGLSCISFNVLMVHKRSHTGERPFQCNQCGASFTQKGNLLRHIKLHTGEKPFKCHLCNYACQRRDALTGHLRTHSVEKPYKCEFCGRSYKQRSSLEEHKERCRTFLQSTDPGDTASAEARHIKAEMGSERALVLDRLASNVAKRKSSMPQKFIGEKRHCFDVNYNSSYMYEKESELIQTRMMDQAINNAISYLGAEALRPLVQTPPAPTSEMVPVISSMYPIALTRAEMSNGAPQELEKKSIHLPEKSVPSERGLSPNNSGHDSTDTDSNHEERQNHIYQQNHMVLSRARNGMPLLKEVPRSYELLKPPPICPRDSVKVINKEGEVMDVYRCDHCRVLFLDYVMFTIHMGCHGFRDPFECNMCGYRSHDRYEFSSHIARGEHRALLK
T5 sequence (Q96SW2 whole entry): as the sequence (Q96SW2 whole entry) above
T5 sequence (Q16531 whole entry partner): as the sequence (Q16531 whole entry partner) above

[10] = biological target: T6, IKZF2 (Homo sapiens, UniProt Q96SW2+Q9UKS7); test: as above; assay type: cell-based
T6 construct: effects of the compounds of the present disclosure on the expression of target proteins in cells; endogenous in cells; host or cells: human PBMCs (Milecell Biotechnologies)
T6 sequence (Q9UKS7 whole entry): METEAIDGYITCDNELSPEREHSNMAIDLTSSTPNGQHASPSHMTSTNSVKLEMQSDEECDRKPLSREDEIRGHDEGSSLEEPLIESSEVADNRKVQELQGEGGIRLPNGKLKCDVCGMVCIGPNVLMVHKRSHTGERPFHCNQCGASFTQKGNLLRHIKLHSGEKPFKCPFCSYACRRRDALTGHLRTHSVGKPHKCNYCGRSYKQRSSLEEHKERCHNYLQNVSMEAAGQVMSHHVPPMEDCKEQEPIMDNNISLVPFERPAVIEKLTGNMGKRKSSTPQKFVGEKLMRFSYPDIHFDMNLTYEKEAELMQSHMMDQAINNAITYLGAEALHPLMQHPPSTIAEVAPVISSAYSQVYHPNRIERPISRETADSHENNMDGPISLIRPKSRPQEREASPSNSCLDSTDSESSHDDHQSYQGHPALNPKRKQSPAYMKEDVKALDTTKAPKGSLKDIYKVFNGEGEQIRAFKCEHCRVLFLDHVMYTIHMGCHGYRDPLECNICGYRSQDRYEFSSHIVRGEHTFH
T6 sequence (Q96SW2 whole entry): as the sequence (Q96SW2 whole entry) above
T6 sequence (Q16531 whole entry partner): as the sequence (Q16531 whole entry partner) above

[11] = test system: Human breast cancer cell (MCF-7); test: Tumor cell proliferation inhibition (CellTiter-Meiluncell luminescent cell viability assay); conditions: MCF7, 96 h; for inhibition at 0.01 µM: read-out: Inhibition Rate at 10 nM (%); for inhibition at 0.5 µM: read-out: Inhibition Rate at 500 nM (%)
[12] = test system: Human acute T lymphocytic leukemia cell (Molt4); test: as above; conditions: MOLT-4, 96 h; for inhibition at 0.01 µM: read-out: Inhibition Rate at 10 nM (%); for inhibition at 0.5 µM: read-out: Inhibition Rate at 500 nM (%)
Experimental: (§1) The tumor cells used herein were cultured in a cell culture medium listed in table 2 at 37°C in an incubator with 5% CO2. Prior to experimentation, all cell lines used were correctly identified by STR profiling, and tested negative for mycoplasma contamination using a mycoplasma detection kit through routine screenings.
(§2) The IC50 values of the compounds of the present disclosure (including the compounds in Table 1 and Examples) were determined using the CellTiter-Meiluncell Luminescent Cell Viability Assay Kit from Dalian Meilun Biotech Co., Ltd. The detailed procedure is as follows: Tumor cells were seeded in 96-well cell culture plates at the densities specified in Table 3. On the following day, the test compounds of the present disclosure were subjected to serial dilution. The dilution can be performed according to one of the following two methods: • (1) The first dilution method: The test compounds of the present disclosure (including the compounds in Table 1 and Examples) were subjected to 5-fold serial dilutions starting from a highest concentration of 2000 µM, resulting in a total of 9 concentrations from high to low (2000, 400, 80, 16, 3.2, 0.64, 0.128, 0.0256, 0.00512 µM). Subsequently, 0.5 µL of the test compound dilution was transferred into the 96-well plate containing the cells, with each well containing 100 µL of cell culture medium. […] Into the 96-well plate, the diluted test compounds and corresponding detection reagents were added, resulting in final test compound concentrations of 500 nM and 10 nM, respectively. The experimental procedure is described below using the diluted 2 µM test compound as an example.
(§3) 0.5 µL of the aforementioned diluted compound of the present disclosure (including the compounds in Table 1 and Examples) was added to the seeded cells in 100 µL of medium, yielding a final test compound concentration of 10 nM. After the cells were treated with the compounds of the present disclosure for a specified period, the cell viability assay reagent was added to the culture medium according to the kit's instructions to determine cell viability. […] All controls were treated using the same procedure as the compounds of the present disclosure. The growth inhibition curves for the compounds of the present disclosure were plotted using Prism GraphPad software, and the IC50 values were calculated therefrom.

[13] = test system: Human acute myeloid leukemia cell line: Kasumi-1; test: as above; conditions: Kasumi 1, 96 h; for inhibition at 0.01 µM: read-out: Inhibition Rate at 10 nM (%); for inhibition at 0.5 µM: read-out: Inhibition Rate at 500 nM (%)
Experimental: as §1, §2, §3

[14] = test system: Human multiple myeloma peripheral blood B lymphocyte cell (RPMI-8226); test: as above; conditions: RPMI-8226, 96 h; for inhibition at 0.01 µM: read-out: Inhibition Rate at 10 nM (%); for inhibition at 0.5 µM: read-out: Inhibition Rate at 500 nM (%)
Experimental: as §1, §2, §3

[15] = test system: Human multiple myeloma cell (MM.1S); test: as above; conditions: for inhibition at 0.01 µM / inhibition at 0.5 µM: Homo sapiens, MM1.S, 96 h; for inhibition at 0.01 µM: read-out: Inhibition Rate at 10 nM (%); for inhibition at 0.5 µM: read-out: Inhibition Rate at 500 nM (%)
[16] = test system: Human malignant melanoma cell line: A375; test: as above; conditions: A-375, 96 h
Experimental: as §1, §2, §3

[17] = 24 hours treatment, compounds at 50 nM and 500 nM (concentration behind the class not stated)
[18] = Western blot, 24 hours of compound treatment, compounds tested at 50 nM and 500 nM (concentration for the table not stated)

SMILES | inhibition at 0.01 µM [1] | inhibition at 0.5 µM [1] | inhibition at 0.01 µM [2] | inhibition at 0.5 µM [2] | inhibition at 0.01 µM [3] | inhibition at 0.5 µM [3] | GSPT1 substrate protein remaining % [4, 17] | inhibition at 0.5 µM [5] | inhibition at 2 µM [5] | Wee1 substrate protein remaining % [6, 17] | IKZF 1 substrate protein remaining % [7, 17] | CK1α substrate protein remaining % [8, 17] | IKZF3 substrate protein remaining % [9, 17] | IKZF2 substrate protein remaining % [10, 17] | inhibition at 0.01 µM [11] | inhibition at 0.5 µM [11] | inhibition at 0.01 µM [12] | inhibition at 0.5 µM [12] | inhibition at 0.01 µM [13] | inhibition at 0.5 µM [13] | also measured
O=C1CCC(N2Cc3cc(CN4CC=C(c5ccsc5)CC4)ccc3C2=S)C(=O)N1 (stereo not drawn) [GT-08172, 3-(5-((4-(thiophen-3-yl)-3,6-dihydropyridin-1(2H)-yl)methyl)-1-thioxoisoindolin-2-yl)piperidine-2,6-dione] | 60 to 70% | 80 to 100% | 60 to 80% | 80 to 100% | 50 to 60% | 80 to 100% | A (0% ≤ substrate protein remaining % ≤ 80%) | 80 to 100% | 80 to 100% | A (0% ≤ substrate protein remaining % ≤ 80%) | A (0% ≤ substrate protein remaining % ≤ 80%) | A (0% ≤ substrate protein remaining % ≤ 80%) | A (0% ≤ substrate protein remaining % ≤ 80%) | A (0% ≤ substrate protein remaining % ≤ 80%) | 50 to 60% | 70 to 80% | 60 to 70% | 80 to 100% | 20 to 30% | 80 to 100% | inhibition at 0.01 µM [14]: 20 to 30%; inhibition at 0.5 µM [14]: 80 to 100%; inhibition at 0.01 µM [15]: 40 to 50%; Inhibition Rate at 500 nM (%) ([15]; MM.1S, 500 nM, 96 hours): la10
O=C1CCC(N2Cc3cc(CN4CC=C(c5cccc(F)c5Cl)CC4)ccc3C2=S)C(=O)N1 (stereo not drawn) [GT-08206, 3-(5-((4-(2-chloro-3-fluorophenyl)-3,6-dihydropyridin-1(2H)-yl)methyl)-1-thioxoisoindolin-2-yl)piperidine-2,6-dione] | 80 to 100% | 80 to 100% | 80 to 100% | 80 to 100% | 50 to 60% | 80 to 100% | – | 40 to 53% | 80 to 100% | – | – | – | – | – | 0 to 5% | 80 to 100% | 70 to 80% | 80 to 100% | 60 to 70% | 80 to 100% | GSPT1 substrate protein remaining % [4, 18]: A (0% ≤ substrate protein remaining % ≤ 80%); Wee1 substrate protein remaining % [6, 18]: A (0% ≤ substrate protein remaining % ≤ 80%); IKZF 1 substrate protein remaining % [7, 18]: A (0% ≤ substrate protein remaining % ≤ 80%); CK1α substrate protein remaining % [8, 18]: A (0% ≤ substrate protein remaining % ≤ 80%); IKZF3 substrate protein remaining % [9, 18]: A (0% ≤ substrate protein remaining % ≤ 80%); IKZF2 substrate protein remaining % [10, 18]: A (0% ≤ substrate protein remaining % ≤ 80%); inhibition at 0.01 µM [14]: 80 to 100%; inhibition at 0.5 µM [14]: 80 to 100%; inhibition at 0.01 µM [15]: 50 to 60%; inhibition at 0.5 µM [15]: 80 to 100%
Cc1cc(C2=CCN(Cc3ccc4c(c3)CN(C3CCC(=O)NC3=O)C4=S)CC2)cs1 (stereo not drawn) [GT-08327, 3-(5-((4-(5-methylthiophen-3-yl)-3,6-dihydropyridin-1(2H)-yl)methyl)-1-thioxoisoindolin-2-yl)piperidine-2,6-dione] | 30 to 40% | 80 to 100% | 40 to 60% | 80 to 100% | 20 to 30% | 80 to 100% | A (0% ≤ substrate protein remaining % ≤ 80%) | 53 to 60% | 80 to 100% | A (0% ≤ substrate protein remaining % ≤ 80%) | A (0% ≤ substrate protein remaining % ≤ 80%) | A (0% ≤ substrate protein remaining % ≤ 80%) | A (0% ≤ substrate protein remaining % ≤ 80%) | A (0% ≤ substrate protein remaining % ≤ 80%) | 0 to 5% | 70 to 80% | 10 to 20% | 80 to 100% | 30 to 40% | 80 to 100% | inhibition at 0.01 µM [14]: 10 to 20%; inhibition at 0.5 µM [14]: 80 to 100%; inhibition at 0.01 µM [15]: 40 to 50%; inhibition at 0.5 µM [15]: 80 to 100%
O=C1CCC(N2Cc3cc(CN4CCC(c5cccc(F)c5Cl)CC4)ccc3C2=S)C(=O)N1 (stereo not drawn) [GT-08330, 3-(5-((4-(2-chloro-3-fluorophenyl)piperidin-1-yl)methyl)-1-thioxoisoindolin-2-yl)piperidine-2,6-dione] | 5 to 10% | 80 to 100% | 10 to 18% | 80 to 100% | -5 to 0% | 70 to 80% | A (0% ≤ substrate protein remaining % ≤ 80%) | 40 to 53% | 60 to 80% | A (0% ≤ substrate protein remaining % ≤ 80%) | A (0% ≤ substrate protein remaining % ≤ 80%) | A (0% ≤ substrate protein remaining % ≤ 80%) | A (0% ≤ substrate protein remaining % ≤ 80%) | A (0% ≤ substrate protein remaining % ≤ 80%) | 10 to 20% | 50 to 60% | -5 to 0% | 80 to 100% | 5 to 10% | 80 to 100% | inhibition at 0.01 µM [14]: 10 to 20%; inhibition at 0.5 µM [14]: 70 to 80%; inhibition at 0.01 µM [15]: 20 to 30%; inhibition at 0.5 µM [15]: 80 to 100%
O=C1CCC(N2Cc3cc(CN4CCN(c5nc(Cl)nc6ccsc56)CC4)ccc3C2=S)C(=O)N1 (stereo not drawn) [GT-09331, 3-(5-((4-(2-chlorothieno[3,2-d]pyrimidin-4-yl)piperazin-1-yl)methyl)-1-thioxoisoindolin-2-yl)piperidine-2,6-dione] | – | – | – | – | – | – | A (0% ≤ substrate protein remaining % ≤ 80%) | 80 to 100% | 80 to 100% | B (80%< substrate protein remaining %≤ 100%) | B (80%< substrate protein remaining %≤ 100%) | B (80%< substrate protein remaining %≤ 100%) | B (80%< substrate protein remaining %≤ 100%) | B (80%< substrate protein remaining %≤ 100%) | 20 to 30% | 40 to 50% | – | – | – | – | inhibition at 0.01 µM ([16]; read-out: Inhibition Rate at 10 nM (%)): 30 to 40%; inhibition at 0.5 µM ([16]; read-out: Inhibition Rate at 500 nM (%)): 50 to 60%
